Results from patent US8637536B2, “Pyrimidinone compounds for use in the treatment of diseases or conditions mediated by Lp-PLA2” (Glaxo Group Limited, priority 2010, dated 2014).

What was measured:
[1] = target: T1, recombinant human Lp-PLA2 (Homo sapiens, UniProt Q13093); assay: Recombinant human Lp-PLA2 assay (rhLp-PLA2, PED6 assay); assay type: biochemical; settings: text thresholds; upper limit for pIC50 in this assay is 9.3; read-out: pIC50 values in the PED6 assay (converted)
T1 sequence (Q13093 22-441): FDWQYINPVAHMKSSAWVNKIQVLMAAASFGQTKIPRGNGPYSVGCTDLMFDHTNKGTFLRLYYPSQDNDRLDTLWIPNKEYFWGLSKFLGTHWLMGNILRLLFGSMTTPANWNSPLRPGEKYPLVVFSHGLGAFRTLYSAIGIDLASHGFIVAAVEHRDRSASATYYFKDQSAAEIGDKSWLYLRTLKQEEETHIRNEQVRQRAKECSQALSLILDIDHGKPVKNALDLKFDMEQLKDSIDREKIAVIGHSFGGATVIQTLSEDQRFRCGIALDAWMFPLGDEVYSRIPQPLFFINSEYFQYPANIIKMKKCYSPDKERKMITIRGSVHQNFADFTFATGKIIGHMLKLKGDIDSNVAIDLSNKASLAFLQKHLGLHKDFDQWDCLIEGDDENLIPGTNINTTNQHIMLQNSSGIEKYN
Text: (1) Recombinant Human Lp-PLA2 Assay (rhLp-PLA2) (Also Referred to as “PED6” Assay)
N-((6-(2,4-dinitrophenyl)amino)-hexanoyl)-2-(4,4-difluoro-5,7-dimethyl-4-bora-3a,4a-diaza-s-indacene-3-pentanoyl)-1-hexadecanoyl-sn-glycero-3-phosphoethanolamine, triethylammonium salt (PED6) is a commercially available fluorescently-labelled phospholipid, which is commercially available from Molecular Probes. There is a quenching […] position and a Bodipy fluorescein (FL) group in the sn2 position.
The PED6 assay was run as an unquenched 10 μL assay. Compounds source plate was prepared by making 1:3 (by volume) serial dilution of the compounds into pure DMSO on 384-well microplate. […] 5 μL of recombinant human Lp-PLA2 enzyme (2 nM rhLp-PLA2 in assay buffer of 50 mM HEPES, pH7.4, 150 mM NaCl, 1 mM CHAPS) was added to each well of the plate with compounds. Plates were centrifuged for 10 sec at 500 rpm. […] Plates were centrifuged for 10 sec at 500 rpm. Plate was covered to protect from light and incubated for 20 min at room temperature. […] PIC50 data, curve and QC analysis was conducted by using XL fit module in Excel.

[2] = target: T2, Lp-PLA2 from plasma (pooled human plasma) (Homo sapiens, UniProt Q13093); assay: Lp-PLA2 human plasma assay (Thio-PAF assay); assay type: biochemical; settings: text thresholds, read-out: pIC50 values in the thio-PAF assay (converted)
T2 construct: 8 μL pooled human plasma; from tissue; host or cells: pooled human plasma
T2 sequence (Q13093 22-441): T1 sequence (Q13093 22-441)
Text: (3) Lipoprotein-Associated Phospholipase A2 (Lp-PLA2) Human Plasma Assay (Also Referred to as “Thio-PAF Assay”)
The human plasma assay utilizes a thioester analog of PAF (phosphatidylcholine), where hydrolysis yields to the formation of a phospholipid containing a free thiol group. The amount of thiol is quantitated continuously by reacting with CPM (7-diethylamino-3-(4′-maleimidylphenyl)-4-methylcoumarin), a maleimide which increases in fluoresence after Michael addition of thiols. This assay may detect the activity of Lp-PLA2 from plasma, as determined by specific inhibition by Lp-PLA2 inhibitors.
The thio-PAF assay was run as a quenched 15 μL assay. Compounds source plate was prepared by making 1:3 (by volume) serial dilution of the compounds into pure DMSO on 384-well microplate. 0.01 μL of compounds on compound source plate were transferred to 384 well Greiner 784076 (black) low-volume plates by ECHO liquid dispenser. 8 μL pooled human plasma, which was previously aliquoted and frozen, was added. Plates were centrifuged for 10 sec at 500 rpm. After 30 minutes preincubation, 2 μL of substrate (2.5 mM thio-PAF, 3.2 mM NEM (N-ethylmaleimide) [made fresh daily in DMSO], and 32 μM CPM [from a DMSO stock] in assay buffer of 50 mM HEPES, pH7.4, 150 mM NaCl, 1 mM CHAPS was added to 384 well Greiner 784076 (black) low-volume plates by BRAVO liquid handling station. Plates were centrifuged for 10 sec at 500 rpm. Plate was covered to protect from light and incubated for 2 min at room temperature. Reaction was quenched with 5 μL of 5% aqueous trifluoroacetic acid (TFA). Plates were covered to protect from light and incubated for 40 min at room temperature. Plates were read at ex: 380/em: 485 using-Envision microplate reader. PIC50 data, curve and QC analysis was conducted by using XLFit module in Excel.

| SMILES | IC50 [1] | IC50 [2] |
| --- | --- | --- |
| COc1ncc(Cc2cn(C)c(SCc3ccc(Oc4ccc(Cl)c(C(F)(F)F)c4)cc3)nc2=O)cn1 [E75, 2-{[(4-{[4-chloro-3-(trifluoromethyl)phenyl]oxy}phenyl)methyl]thio}-1-methyl-5-{[2-(methyloxy)-5-pyrimidinyl]methyl}-4(1H)-pyrimidinone] | ≤ 1 nM | ≤ 100 nM |
| COc1ncc(Cc2c[nH]c(SCc3ccc(Oc4ccc(Cl)c(C(F)(F)F)c4)c(C#N)c3)nc2=O)cn1 [E84, 2-{[4-chloro-3-(trifluoromethyl)phenyl]oxy}-5-{[(5-{[2-(methyloxy)-5-pyrimidinyl]methyl}-4-oxo-1,4-dihydro-2-pyrimidinyl)thio]methyl}benzonitrile] | ≤ 1 nM | ≤ 1000 nM |
| COc1ncc(Cc2cn(C)c(SCc3ccc(Oc4ccc(Cl)c(C(F)(F)F)c4)c(C#N)c3)nc2=O)cn1 [E85, 2-{[4-chloro-3-(trifluoromethyl)phenyl]oxy}-5-{[(1-methyl-5-{[2-(methyloxy)-5-pyrimidinyl]methyl}-4-oxo-1,4-dihydro-2-pyrimidinyl)thio]methyl}benzonitrile] | ≤ 1 nM | ≤ 100 nM |
| N#Cc1cc(CSc2nc(=O)c(Cc3cncnc3)c[nH]2)ccc1Oc1ccc(F)c(C(F)(F)F)c1 [E87, 2-{[4-fluoro-3-(trifluoromethyl)phenyl]oxy}-5-({[4-oxo-5-(5-pyrimidinylmethyl)-1,4-dihydro-2-pyrimidinyl]thio}methyl)benzonitrile] | ≤ 1 nM | ≤ 1000 nM |
| COc1ncc(Cc2cn(C)c(SCc3ccc(Oc4ccc(F)c(C(F)(F)F)c4)c(C#N)c3)nc2=O)cn1 [E90, 2-{[4-fluoro-3-(trifluoromethyl)phenyl]oxy}-5-{[(1-methyl-5-{[2-(methyloxy)-5-pyrimidinyl]methyl}-4-oxo-1,4-dihydro-2-pyrimidinyl)thio]methyl}benzonitrile] | ≤ 1 nM | ≤ 100 nM |
| COc1ncc(Cc2c[nH]c(OCCc3ccc(Oc4cnc(C(F)(F)F)nc4)c(F)c3)nc2=O)cn1 [E167, 2-(3-fluoro-4-((2-(trifluoromethyl)pyrimidin-5-yl)oxy)phenethoxy)-5-((2-methoxypyrimidin-5-yl)methyl)pyrimidin-4(1H)-one] |  | ≤ 100 nM |
| O=c1nc(OCCc2cc(F)c(Oc3cnc(C(F)(F)F)nc3)c(F)c2)[nH]cc1Cc1cncnc1 [E168] |  | ≤ 100 nM |
| COc1ncc(Cc2c[nH]c(OCCc3cc(F)c(Oc4cnc(C(F)(F)F)nc4)c(F)c3)nc2=O)cn1 [E169, 2-(3,5-difluoro-4-((2-(trifluoromethyl)pyrimidin-5-yl)oxy)phenethoxy)-5-((2-methoxypyrimidin-5-yl)methyl)pyrimidin-4(1H)-one] |  | ≤ 100 nM |
| CCc1cn(C)c(OCCc2ccc(Oc3ccc(Cl)c(C(F)(F)F)c3)c(F)c2)nc1=O [E174, 2-{[2-(4-{[4-chloro-3-(trifluoromethyl)phenyl]oxy}-3-fluorophenyl)ethyl]oxy}-5-ethyl-1-methyl-4(1H)-pyrimidinone] |  | ≤ 100 nM |
| CCc1cn(C)c(OCCc2cc(F)c(Oc3ccc(Cl)c(C(F)(F)F)c3)c(F)c2)nc1=O [E175, 2-{[2-(4-{[4-chloro-3-(trifluoromethyl)phenyl]oxy}-3,5-difluorophenyl)ethyl]oxy}-5-ethyl-1-methyl-4(1H)-pyrimidinone] |  | ≤ 100 nM |
| COc1ncc(Cc2c[nH]c(OCCc3cc(F)c(Oc4ccc(Cl)c(C(F)(F)F)c4)c(F)c3)nc2=O)cn1 [E176, 2-{[2-(4-{[4-chloro-3-(trifluoromethyl)phenyl]oxy}-3,5-difluorophenyl)ethyl]oxy}-5-{[2-(methyloxy)-5-pyrimidinyl]methyl}-4(1H)-pyrimidinone] |  | ≤ 100 nM |
| O=c1nc(OCCc2ccc(Oc3ccc(Cl)c(OC(F)(F)F)c3)cc2)[nH]cc1Cc1cncnc1 [E177, 2-(4-(4-chloro-3-(trifluoromethoxy)phenoxy)phenethoxy)-5-(pyrimidin-5-ylmethyl)pyrimidin-4(1H)-one] |  | ≤ 100 nM |
| COc1ncc(Cc2c[nH]c(OCCc3ccc(Oc4ccc(Cl)c(OC(F)(F)F)c4)cc3)nc2=O)cn1 [E178, 2-(4-(4-chloro-3-(trifluoromethoxy)phenoxy)phenethoxy)-5-((2-methoxypyrimidin-5-yl)methyl)pyrimidin-4(1H)-one] |  | ≤ 100 nM |
| O=c1nc(NCCc2ccc(Oc3cccc(C(F)(F)F)c3)cc2)[nH]cc1Cc1cncnc1 [E185, 5-Pyrimidin-5-ylmethyl-2-{2-[4-(3-trifluoromethyl-phenoxy)-phenyl]-ethylamino}-1H-pyrimidin-4-one] |  | ≤ 1000 nM |
| COc1ncc(Cc2c[nH]c(NCCc3ccc(Oc4ccc(C(F)(F)F)cn4)cc3)nc2=O)cn1 [E186, 5-(2-methoxy-pyrimidin-5-ylmethyl)-2-{2-[4-(5-trifluoromethyl-pyridin-2-yloxy)phenyl]-ethylamino}-1H-pyrimidin-4-one] |  | ≤ 1000 nM |
| CN(CCc1ccc(Oc2cccc(C(F)(F)F)c2)cc1)c1nc(=O)c(Cc2cncnc2)c[nH]1 [E187, 2-(Methyl-{2-[4-(3-trifluoromethyl-phenoxy)-phenyl]-ethyl}-amino)-5-pyrimidin-5-ylmethyl-1H-pyrimidin-4-one] |  | ≤ 1000 nM |
| COc1ncc(Cc2c[nH]c(NCCc3ccc(Oc4cccc(C(F)(F)F)c4)cc3)nc2=O)cn1 [E193, 5-(2-methoxy-pyrimidin-5-ylmethyl)-2-{2-[4-(3-trifluoromethyl-phenoxy)phenyl]-ethylamino}-1H-pyrimidin-4-one] |  | ≤ 1000 nM |
| O=c1nc(NCCc2ccc(Oc3ccc(Cl)cc3)cc2)[nH]cc1Cc1cncnc1 [E194, 2-{2-[4-(4-Chloro-phenoxy)-phenyl]-ethylamino}-5-pyrimidin-5-ylmethyl-1H-pyrimidin-4-one] |  | ≤ 1000 nM |
| Cc1ncc(Cc2c[nH]c(NCCc3ccc(Oc4ccc(C(F)(F)F)cn4)c(C#N)c3)nc2=O)cn1 [E203, 5-{2-[5-(2-Methyl-pyrimidin-5-ylmethyl)-4-oxo-1,4-dihydro-pyrimidin-2-ylamino]-ethyl}-2-(5-trifluoromethyl-pyridin-2-yloxy)-benzonitrile] |  | ≤ 100 nM |
| Cc1ncc(Cc2c[nH]c(NCCc3ccc(Oc4ccc(C(F)(F)F)c(Cl)c4)cc3)nc2=O)cn1 [E207, 2-{2-[4-(3-chloro-4-trifluoromethyl-phenoxy)-phenyl]ethylamino}-5-(2-methyl-pyrimidin-5-ylmethyl)-1H-pyrimidin-4-one] |  | ≤ 1000 nM |
| Cc1ncc(Cc2c[nH]c(NCCc3ccc(Oc4ccc(C(F)(F)F)cn4)cc3)nc2=O)cn1 [E208, 5-(2-methyl-pyrimidin-5-ylmethyl)-2-{2-[4-(5-trifluoromethyl-pyridin-2-yloxy)phenyl]ethylamino}-1H-pyrimidin-4-one] |  | ≤ 1000 nM |
| O=c1ncc(Cc2c[nH]c(NCCc3ccc(Oc4ccc(Cl)c(C(F)(F)F)c4)cc3)nc2=O)c[nH]1 [E209, 2-{2-[4-(4-chloro-3-trifluoromethyl-phenoxy)-phenyl]ethylamino}-5-(2-oxo-1,2-dihydro-pyrimidin-5-ylmethyl)-1H-pyrimidin-4-one] |  | ≤ 1000 nM |
| Cc1ncc(Cc2c[nH]c(NCCc3ccc(Oc4ccc(Cl)c(C(F)(F)F)c4)c(C#N)c3)nc2=O)cn1 [E211, 2-(4-Chloro-3-trifluoromethyl-phenoxy)-5-{2-[5-(2-methyl-pyrimidin-5-ylmethyl)-4-oxo-1,4-dihydro-pyrimidin-2-ylamino]-ethyl}-benzonitrile] |  | ≤ 1000 nM |
